ChEMBL document CHEMBL3045111, “Synthesis and herbicidal activities of novel 3-(substituted benzyloxy or phenoxy)-6-methyl-4-(3-trifluoromethylphenyl)pyridazine derivatives” (2012)
Active and inactive are the calls of the source. The rule behind the calls is not given here.

Key:
[1] = tested on: Brassica rapa subsp. oleifera; experiment: Post-emergence herbicidal activity against one-leaf stage Brassica rapa subsp. oleifera under greenhouse condition at 300 g /ha measured after 24 days by spray method; type: functional; conditions: 576 h, read-out: GI
[2] = tested on: Brassica rapa subsp. oleifera; experiment: Post-emergence herbicidal activity against one-leaf stage Brassica rapa subsp. oleifera under greenhouse condition assessed as complete bleaching of leaves at 60 g /ha measured after 24 days by spray method; type: functional, organism-based
Amaranthus retroflexus [3] = experiment: Post-emergence herbicidal activity against one-leaf stage Amaranthus retroflexus under greenhouse condition at 150 g /ha measured after 24 days by spray method; type: functional; conditions: 576 h, read-out: GI
[4] = tested on: Brassica rapa subsp. oleifera; experiment: Post-emergence herbicidal activity against one-leaf stage Brassica rapa subsp. oleifera under greenhouse condition assessed as complete bleaching of leaves at 600 g /ha measured after 24 days by spray method; type: functional, organism-based
Digitaria [5] = experiment: Post-emergence herbicidal activity against one-leaf stage of Digitaria adscendens under greenhouse condition at 750 g /ha measured after 24 days by spray method; type: functional; conditions: in Digitaria adscendens, 576 h, read-out: GI
[6] = tested on: Brassica rapa subsp. oleifera; experiment: Post-emergence herbicidal activity against one-leaf stage Brassica rapa subsp. oleifera under greenhouse condition at 7.5 g /ha measured after 24 days by spray method; type: functional; conditions: 576 h, read-out: GI
Amaranthus retroflexus [7] = experiment: Post-emergence herbicidal activity against one-leaf stage Amaranthus retroflexus under greenhouse condition assessed as complete bleaching of leaves at 30 g /ha measured after 24 days by spray method; type: functional, organism-based
[8] = tested on: Brassica rapa subsp. oleifera; experiment: Post-emergence herbicidal activity against one-leaf stage Brassica rapa subsp. oleifera under greenhouse condition assessed as complete bleaching of leaves at 30 g /ha measured after 24 days by spray method; type: functional, organism-based
[9] = tested on: Brassica rapa subsp. oleifera; experiment: Post-emergence herbicidal activity against one-leaf stage Brassica rapa subsp. oleifera under greenhouse condition at 75 g /ha measured after 24 days by spray method; type: functional; conditions: 576 h, read-out: GI
Amaranthus retroflexus [10] = experiment: Post-emergence herbicidal activity against one-leaf stage of Amaranthus retroflexus under greenhouse condition at 750 g /ha measured after 24 days by spray method; type: functional; conditions: 576 h, read-out: GI
Spirodela polyrhiza [11] = experiment: Bleaching herbicidal activity in Spirodela polyrhiza fronds cultured in compound-containing in medium assessed as chlorophyll inhibition at 10 ug/ml after 7 days; type: functional; conditions: 168 h
[12] = tested on: Brassica rapa subsp. oleifera; experiment: Post-emergence herbicidal activity against one-leaf stage Brassica rapa subsp. oleifera under greenhouse condition at 15 g /ha measured after 24 days by spray method; type: functional; conditions: 576 h, read-out: GI
[13] = tested on: Brassica rapa subsp. oleifera; experiment: Post-emergence herbicidal activity against one-leaf stage Brassica rapa subsp. oleifera under greenhouse condition at 150 g /ha measured after 24 days by spray method; type: functional; conditions: 576 h, read-out: GI
Digitaria [14] = experiment: Pre-emergence herbicidal activity against Digitaria adscendens under greenhouse condition at 750 g /ha measured after 24 days by spray method; type: functional; conditions: in Digitaria adscendens, 576 h, read-out: GI
[15] = tested on: Brassica rapa subsp. oleifera; experiment: Post-emergence herbicidal activity against one-leaf stage Brassica rapa subsp. oleifera under greenhouse condition assessed as complete bleaching of leaves at 300 g /ha measured after 24 days by spray method; type: functional, organism-based
Amaranthus retroflexus [16] = experiment: Post-emergence herbicidal activity against one-leaf stage Amaranthus retroflexus under greenhouse condition assessed as complete bleaching of leaves at 300 g /ha measured after 24 days by spray method; type: functional, organism-based
Echinochloa crus-galli [17] = experiment: Pre-emergence herbicidal activity against Echinochloa crus-galli (barnyard grass) under greenhouse condition at 750 g /ha measured after 24 days by spray method; type: functional; conditions: 576 h, read-out: GI
[18] = tested on: Brassica rapa subsp. oleifera; experiment: Post-emergence herbicidal activity against one-leaf stage Brassica rapa subsp. oleifera under greenhouse condition at 30 g /ha measured after 24 days by spray method; type: functional; conditions: 576 h, read-out: GI
Amaranthus retroflexus [19] = experiment: Post-emergence herbicidal activity against one-leaf stage Amaranthus retroflexus under greenhouse condition assessed as complete bleaching of leaves at 15 g /ha measured after 24 days by spray method; type: functional, organism-based
Amaranthus retroflexus [20] = experiment: Post-emergence herbicidal activity against one-leaf stage Amaranthus retroflexus under greenhouse condition at 75 g /ha measured after 24 days by spray method; type: functional; conditions: 576 h, read-out: GI
[21] = tested on: Brassica rapa subsp. oleifera; experiment: Post-emergence herbicidal activity against one-leaf stage Brassica rapa subsp. oleifera under greenhouse condition at 60 g /ha measured after 24 days by spray method; type: functional; conditions: 576 h, read-out: GI
[22] = tested on: Brassica rapa subsp. oleifera; experiment: Post-emergence herbicidal activity against one-leaf stage Brassica rapa subsp. oleifera under greenhouse condition at 750 g /ha measured after 24 days by spray method; type: functional; conditions: 576 h, read-out: GI
[23] = tested on: Brassica rapa subsp. oleifera; experiment: Post-emergence herbicidal activity against one-leaf stage Brassica rapa subsp. oleifera under greenhouse condition assessed as complete bleaching of leaves at 7.5 g /ha measured after 24 days by spray method; type: functional, organism-based
[24] = tested on: Brassica rapa subsp. oleifera; experiment: Pre-emergence herbicidal activity against Brassica rapa subsp. oleifera under greenhouse condition at 750 g /ha measured after 24 days by spray method; type: functional; conditions: 576 h, read-out: GI
[25] = tested on: Brassica rapa subsp. oleifera; experiment: Post-emergence herbicidal activity against one-leaf stage Brassica rapa subsp. oleifera under greenhouse condition assessed as complete bleaching of leaves at 15 g /ha measured after 24 days by spray method; type: functional, organism-based
Amaranthus retroflexus [26] = experiment: Post-emergence herbicidal activity against one-leaf stage Amaranthus retroflexus under greenhouse condition assessed as complete bleaching of leaves at 7.5 g /ha measured after 24 days by spray method; type: functional, organism-based
Amaranthus retroflexus [27] = experiment: Post-emergence herbicidal activity against one-leaf stage Amaranthus retroflexus under greenhouse condition assessed as complete bleaching of leaves at 75 g /ha measured after 24 days by spray method; type: functional, organism-based
Amaranthus retroflexus [28] = experiment: Post-emergence herbicidal activity against one-leaf stage Amaranthus retroflexus under greenhouse condition at 300 g /ha measured after 24 days by spray method; type: functional; conditions: 576 h, read-out: GI
Amaranthus retroflexus [29] = experiment: Post-emergence herbicidal activity against one-leaf stage Amaranthus retroflexus under greenhouse condition assessed as complete bleaching of leaves at 150 g /ha measured after 24 days by spray method; type: functional, organism-based
Amaranthus retroflexus [30] = experiment: Post-emergence herbicidal activity against one-leaf stage Amaranthus retroflexus under greenhouse condition at 7.5 g /ha measured after 24 days by spray method; type: functional; conditions: 576 h, read-out: GI
Amaranthus retroflexus [31] = experiment: Post-emergence herbicidal activity against one-leaf stage Amaranthus retroflexus under greenhouse condition at 15 g /ha measured after 24 days by spray method; type: functional; conditions: 576 h, read-out: GI
Amaranthus retroflexus [32] = experiment: Post-emergence herbicidal activity against one-leaf stage Amaranthus retroflexus under greenhouse condition assessed as complete bleaching of leaves at 60 g /ha measured after 24 days by spray method; type: functional, organism-based
Spirodela polyrhiza [33] = experiment: Bleaching herbicidal activity in Spirodela polyrhiza fronds cultured in compound-containing in medium assessed as chlorophyll inhibition at 1 ug/ml after 7 days; type: functional; conditions: 168 h
Amaranthus retroflexus [34] = experiment: Pre-emergence herbicidal activity against Amaranthus retroflexus under greenhouse condition at 750 g /ha measured after 24 days by spray method; type: functional; conditions: 576 h, read-out: GI
[35] = tested on: Brassica rapa subsp. oleifera; experiment: Post-emergence herbicidal activity against one-leaf stage Brassica rapa subsp. oleifera under greenhouse condition at 600 g /ha measured after 24 days by spray method; type: functional; conditions: 576 h, read-out: GI
Amaranthus retroflexus [36] = experiment: Post-emergence herbicidal activity against one-leaf stage Amaranthus retroflexus under greenhouse condition at 600 g /ha measured after 24 days by spray method; type: functional; conditions: 576 h, read-out: GI
[37] = tested on: Brassica rapa subsp. oleifera; experiment: Post-emergence herbicidal activity against one-leaf stage Brassica rapa subsp. oleifera under greenhouse condition assessed as complete bleaching of leaves at 150 g /ha measured after 24 days by spray method; type: functional, organism-based
Echinochloa crus-galli [38] = experiment: Post-emergence herbicidal activity against one-leaf stage of Echinochloa crus-galli (barnyard grass) under greenhouse condition at 750 g /ha measured after 24 days by spray method; type: functional; conditions: 576 h, read-out: GI
Amaranthus retroflexus [39] = experiment: Post-emergence herbicidal activity against one-leaf stage Amaranthus retroflexus under greenhouse condition at 60 g /ha measured after 24 days by spray method; type: functional; conditions: 576 h, read-out: GI
Amaranthus retroflexus [40] = experiment: Post-emergence herbicidal activity against one-leaf stage Amaranthus retroflexus under greenhouse condition assessed as complete bleaching of leaves at 600 g /ha measured after 24 days by spray method; type: functional, organism-based
[41] = tested on: Brassica rapa subsp. oleifera; experiment: Post-emergence herbicidal activity against one-leaf stage Brassica rapa subsp. oleifera under greenhouse condition assessed as complete bleaching of leaves at 75 g /ha measured after 24 days by spray method; type: functional, organism-based
Amaranthus retroflexus [42] = experiment: Post-emergence herbicidal activity against one-leaf stage Amaranthus retroflexus under greenhouse condition at 30 g /ha measured after 24 days by spray method; type: functional; conditions: 576 h, read-out: GI

## Cc1cc(-c2cccc(C(F)(F)F)c2)c(Oc2ccc(C#N)cc2)nn1
[1]
  inhibition of growth at 300 g/ha: 98%
[2]
  Activity: Active
Amaranthus retroflexus [3]
  inhibition of growth at 150 g/ha: 100%
[4]
  Activity: Active
Digitaria [5]
  inhibition of growth at 750 g/ha: 99%
[6]
  inhibition of growth at 7.5 g/ha: 41%
Amaranthus retroflexus [7]
  Activity: Active
[8]
  Activity: Active
[9]
  inhibition of growth at 75 g/ha: 90%
Amaranthus retroflexus [10]
  inhibition of growth at 750 g/ha: 100%
Spirodela polyrhiza [11]
  inhibition at 10 µg/mL: 93%
[12]
  inhibition of growth at 15 g/ha: 47%
[13]
  inhibition of growth at 150 g/ha: 95%
Digitaria [14]
  inhibition of growth at 750 g/ha: 99%
[15]
  Activity: Active
Amaranthus retroflexus [16]
  Activity: Active
Echinochloa crus-galli [17]
  inhibition of growth at 750 g/ha: 91%
[18]
  inhibition of growth at 30 g/ha: 57%
Amaranthus retroflexus [19]
  Activity: Active
Amaranthus retroflexus [20]
  inhibition of growth at 75 g/ha: 99%
[21]
  inhibition of growth at 60 g/ha: 89%
[22]
  inhibition of growth at 750 g/ha: 96%
[23]
  Activity: Active
[24]
  inhibition of growth at 750 g/ha: 100%
[25]
  Activity: Active
Amaranthus retroflexus [26]
  Activity: Active
Amaranthus retroflexus [27]
  Activity: Active
Amaranthus retroflexus [28]
  inhibition of growth at 300 g/ha: 100%
Amaranthus retroflexus [29]
  Activity: Active
Amaranthus retroflexus [30]
  inhibition of growth at 7.5 g/ha: 34%
Amaranthus retroflexus [31]
  inhibition of growth at 15 g/ha: 37%
Amaranthus retroflexus [32]
  Activity: Active
Spirodela polyrhiza [33]
  inhibition at 1 µg/mL: 87%
Amaranthus retroflexus [34]
  inhibition of growth at 750 g/ha: 99%
[35]
  inhibition of growth at 600 g/ha: 99%
Amaranthus retroflexus [36]
  inhibition of growth at 600 g/ha: 100%
[37]
  Activity: Active
Echinochloa crus-galli [38]
  inhibition of growth at 750 g/ha: 83%
Amaranthus retroflexus [39]
  inhibition of growth at 60 g/ha: 42%
Amaranthus retroflexus [40]
  Activity: Active
[41]
  Activity: Active
Amaranthus retroflexus [42]
  inhibition of growth at 30 g/ha: 38%

## Cc1cc(-c2cccc(C(F)(F)F)c2)c(Oc2cccc(Br)c2)nn1
[1]
  inhibition of growth at 300 g/ha: 76%
Amaranthus retroflexus [3]
  inhibition of growth at 150 g/ha: 45%
[4]
  Activity: Active
Digitaria [5]
  inhibition of growth at 750 g/ha: 40%
[9]
  inhibition of growth at 75 g/ha: 42%
Amaranthus retroflexus [10]
  inhibition of growth at 750 g/ha: 94%
Spirodela polyrhiza [11]
  inhibition at 10 µg/mL: 79%
[13]
  inhibition of growth at 150 g/ha: 67%
Digitaria [14]
  inhibition of growth at 750 g/ha: 33%
[15]
  Activity: Active
Amaranthus retroflexus [16]
  Activity: Active
Echinochloa crus-galli [17]
  inhibition of growth at 750 g/ha: 14%
Amaranthus retroflexus [20]
  inhibition of growth at 75 g/ha: 38%
[22]
  inhibition of growth at 750 g/ha: 100%
[24]
  inhibition of growth at 750 g/ha: 0%
Amaranthus retroflexus [27]
  Activity: Active
Amaranthus retroflexus [28]
  inhibition of growth at 300 g/ha: 70%
Amaranthus retroflexus [29]
  Activity: Active
Spirodela polyrhiza [33]
  inhibition at 1 µg/mL: 70%
Amaranthus retroflexus [34]
  inhibition of growth at 750 g/ha: 0%
[35]
  inhibition of growth at 600 g/ha: 91%
Amaranthus retroflexus [36]
  inhibition of growth at 600 g/ha: 73%
[37]
  Activity: Active
Echinochloa crus-galli [38]
  inhibition of growth at 750 g/ha: 40%
Amaranthus retroflexus [40]
  Activity: Active
[41]
  Activity: Active
